Measurements from patent US10072006B2 (MUTABILIS, priority 2015, dated 2018).
pIC50: −log10 of the molar value.

How the values were obtained:
[1] = system: E. cloacae UFR85 (TEM-1, CTX-M-15, derepressed ampC); assay: microbe, parasite or virus in culture; assay type: cell-based; conditions: for MIC: Enterobacter cloacae, 18 h, read-out: MIC compounds of the invention alone
Experimental: […] […] Microplates were incubated for 16-20 h at 35° C. in ambient air. The MIC of the compounds was defined as the lowest concentration of said compounds that prevented bacterial growth as read by visual inspection.

[2] = molecular target: T1, OXA-11 (Pseudomonas aeruginosa, UniProt Q06778); assay: β-lactamase inhibitory activity, determination of IC50 (nitrocefin hydrolysis); assay type: biochemical
T1 construct: made in house; host or cells: E. coli
T1 sequence (Q06778 21-266): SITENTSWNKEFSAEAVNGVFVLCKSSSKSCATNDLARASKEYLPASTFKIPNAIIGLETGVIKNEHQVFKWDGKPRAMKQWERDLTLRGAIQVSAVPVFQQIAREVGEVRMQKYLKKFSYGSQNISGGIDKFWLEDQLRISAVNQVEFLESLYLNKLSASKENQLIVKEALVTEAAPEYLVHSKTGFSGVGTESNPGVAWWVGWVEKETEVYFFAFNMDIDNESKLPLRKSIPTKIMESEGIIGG

[3] = system: K. oxytoca UFR21 (TEM-1, CTX-M-15, OXA-48); assay: microbe, parasite or virus in culture; assay type: cell-based; conditions: for MIC: Klebsiella oxytoca, 18 h, read-out: MIC compounds of the invention alone
[4] = molecular target: T2, OXA-15 (Pseudomonas aeruginosa, UniProt Q51574); assay: β-lactamase inhibitory activity, determination of IC50 (nitrocefin hydrolysis); assay type: biochemical
T2 construct: made in house; host or cells: E. coli
T2 sequence (Q51574 22-275): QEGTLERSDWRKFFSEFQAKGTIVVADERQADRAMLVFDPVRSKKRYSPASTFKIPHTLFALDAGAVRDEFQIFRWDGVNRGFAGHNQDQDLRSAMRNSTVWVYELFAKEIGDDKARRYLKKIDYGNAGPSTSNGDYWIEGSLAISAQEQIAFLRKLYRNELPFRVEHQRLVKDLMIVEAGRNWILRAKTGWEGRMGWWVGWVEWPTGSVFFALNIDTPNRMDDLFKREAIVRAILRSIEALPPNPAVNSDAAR

[5] = molecular target: AmpC (PAE) (Pseudomonas aeruginosa, UniProt P24735); assay: biochemical
AmpC (PAE), sequence (P24735 27-397): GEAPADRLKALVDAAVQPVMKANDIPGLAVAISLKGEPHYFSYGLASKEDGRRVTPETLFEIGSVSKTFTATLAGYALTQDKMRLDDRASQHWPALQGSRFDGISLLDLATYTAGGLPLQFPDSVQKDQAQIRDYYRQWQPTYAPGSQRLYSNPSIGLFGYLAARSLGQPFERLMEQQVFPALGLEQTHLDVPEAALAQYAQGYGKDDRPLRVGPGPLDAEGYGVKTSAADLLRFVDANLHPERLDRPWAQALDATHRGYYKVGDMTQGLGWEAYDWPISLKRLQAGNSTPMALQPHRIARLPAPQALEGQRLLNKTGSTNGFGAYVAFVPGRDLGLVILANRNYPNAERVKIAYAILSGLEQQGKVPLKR

[6] = system: K. pneumoniae UFR68 (TEM-1, SHV-11, CTX-M-15, KPC-3); assay: microbe, parasite or virus in culture; assay type: cell-based; conditions: for MIC: Klebsiella pneumoniae, 18 h, read-out: MIC compounds of the invention alone
[7] = molecular target: T3, SHV-1 (Klebsiella pneumoniae, UniProt P0AD64); assay: β-lactamase inhibitory activity, determination of IC50 (nitrocefin hydrolysis); assay type: biochemical
T3 construct: made in house; host or cells: E. coli
T3 sequence (P0AD64 22-286): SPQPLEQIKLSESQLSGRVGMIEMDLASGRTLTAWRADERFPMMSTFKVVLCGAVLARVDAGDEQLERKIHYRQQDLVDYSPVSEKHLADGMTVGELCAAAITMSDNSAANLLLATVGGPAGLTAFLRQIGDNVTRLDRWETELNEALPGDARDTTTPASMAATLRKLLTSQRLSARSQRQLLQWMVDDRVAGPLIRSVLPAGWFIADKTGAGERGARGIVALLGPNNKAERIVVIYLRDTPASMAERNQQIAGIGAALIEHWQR

[8] = molecular target: T4, OXA-1 (Escherichia coli, UniProt P13661); assay: as above; assay type: biochemical
T4 construct: made in house; host or cells: E. coli
T4 sequence (P13661 26-276): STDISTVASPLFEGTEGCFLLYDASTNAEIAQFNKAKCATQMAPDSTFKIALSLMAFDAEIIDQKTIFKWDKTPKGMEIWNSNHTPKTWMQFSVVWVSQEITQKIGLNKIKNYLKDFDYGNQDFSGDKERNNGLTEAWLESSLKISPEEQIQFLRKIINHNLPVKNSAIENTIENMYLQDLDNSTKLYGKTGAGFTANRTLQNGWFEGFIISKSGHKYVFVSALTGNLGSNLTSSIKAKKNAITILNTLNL

[9] = system: E. coli 190317 (TEM-1, SHV-12, CTX-M-15, OXA-1); assay: microbe, parasite or virus in culture; assay type: cell-based; conditions: for MIC: Escherichia coli, 18 h, read-out: MIC compounds of the invention alone; for MIC, combination of CAZ and compounds of the invention: MIC of ceftazidime with compound fixed at 4 μg/mL, strain 190317 (E. coli)
Experimental: (§1) Briefly, compounds alone according to the invention were prepared in DMSO and spotted (2 μL each) on sterile polystyrene plates (Corning, 3788). […] Microplates were incubated for 16-20 h at 35° C. in ambient air. The MIC of the compounds was defined as the lowest concentration of said compounds that prevented bacterial growth as read by visual inspection.

[10] = system: E. cloacae 260508 (TEM-1, CTX-M-15); assay: microbe, parasite or virus in culture; assay type: cell-based; conditions: for MIC: Enterobacter cloacae, read-out: MIC compounds of the invention alone; for MIC, combination of CAZ and compounds of the invention: MIC of ceftazidime with compound fixed at 4 μg/mL, strain 260508 (E. cloacae)
Experimental: as §1

[11] = system: K. pneumoniae 160143 (TEM-1, SHV-1, CTX-M-15, KPC-2, OXA-1); assay: microbe, parasite or virus in culture; assay type: cell-based; conditions: for MIC: Klebsiella pneumoniae, 18 h, read-out: MIC compounds of the invention alone
Experimental: as §1

[12] = molecular target: T5, CTX-M-15 (Escherichia coli, UniProt Q9EXV5); assay: β-lactamase inhibitory activity, determination of IC50 (nitrocefin hydrolysis); assay type: biochemical
T5 construct: made in house; host or cells: E. coli
T5 sequence (Q9EXV5 entry or part of it): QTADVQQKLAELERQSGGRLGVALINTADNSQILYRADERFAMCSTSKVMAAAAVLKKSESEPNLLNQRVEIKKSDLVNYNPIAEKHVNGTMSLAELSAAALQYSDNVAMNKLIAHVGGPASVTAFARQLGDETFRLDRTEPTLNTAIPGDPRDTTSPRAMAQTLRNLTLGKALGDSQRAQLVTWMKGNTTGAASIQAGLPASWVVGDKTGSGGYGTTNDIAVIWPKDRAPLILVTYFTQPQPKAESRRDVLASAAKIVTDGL

[13] = molecular target: AmpC (P99) (Enterobacter cloacae, UniProt P05364); assay: biochemical
AmpC (P99), sequence (P05364 21-381): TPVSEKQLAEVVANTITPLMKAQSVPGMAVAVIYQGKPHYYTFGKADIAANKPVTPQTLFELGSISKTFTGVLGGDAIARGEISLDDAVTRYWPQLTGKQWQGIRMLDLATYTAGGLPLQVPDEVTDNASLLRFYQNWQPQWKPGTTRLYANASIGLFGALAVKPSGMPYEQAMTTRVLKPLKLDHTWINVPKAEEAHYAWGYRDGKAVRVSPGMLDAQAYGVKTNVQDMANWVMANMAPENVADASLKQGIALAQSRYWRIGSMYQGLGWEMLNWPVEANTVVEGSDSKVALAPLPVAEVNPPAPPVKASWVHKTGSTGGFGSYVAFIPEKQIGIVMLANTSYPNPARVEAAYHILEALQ

[14] = molecular target: T6, TEM-1 (Escherichia coli, UniProt P62593); assay: β-lactamase inhibitory activity, determination of IC50 (nitrocefin hydrolysis); assay type: biochemical; conditions: class (A), 30 min pre-incubation
T6 construct: made in house; host or cells: E. coli
T6 sequence (P62593 24-286 limits assumed): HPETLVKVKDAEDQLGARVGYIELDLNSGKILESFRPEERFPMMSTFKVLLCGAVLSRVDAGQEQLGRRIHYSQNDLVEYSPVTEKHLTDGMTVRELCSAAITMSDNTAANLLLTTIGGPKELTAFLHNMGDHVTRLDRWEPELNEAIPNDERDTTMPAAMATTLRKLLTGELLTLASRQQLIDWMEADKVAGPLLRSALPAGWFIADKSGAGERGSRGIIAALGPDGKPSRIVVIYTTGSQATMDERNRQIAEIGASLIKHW

[15] = system: P. aeruginosa UFR90 (Derepressed ampC, OprD-); assay: MIC of compounds and synergy with ceftazidime (broth microdilution); assay type: cell-based
Method in brief: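 Compounds alone were dissolved in DMSO and spotted onto plates. After inoculation, plates were incubated 16-20 h at 35° C in ambient air. MIC was taken as the lowest compound concentration preventing bacterial growth by visual inspection.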

[16] = system: P. aeruginosa UFR92 (Derepressed ampC, OprD-); assay: as above; assay type: cell-based; conditions: MIC of ceftazidime with compound fixed at 4 μg/mL; strain UFR92 (P. aeruginosa)
Method in brief: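 First, test compounds prepared in DMSO are spotted on sterile plates. Next, plates incubate at 35° C under ambient air for 16-20 h. Finally, wells are inspected by eye, and the lowest concentration without growth gives the MIC.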

[17] = molecular target: T7, OXA-48 (Klebsiella pneumoniae, UniProt Q6XEC0); assay: β-lactamase inhibitory activity, determination of IC50 (nitrocefin hydrolysis); assay type: biochemical
T7 construct: made in house; host or cells: E. coli
T7 sequence (Q6XEC0 23-265 limits assumed): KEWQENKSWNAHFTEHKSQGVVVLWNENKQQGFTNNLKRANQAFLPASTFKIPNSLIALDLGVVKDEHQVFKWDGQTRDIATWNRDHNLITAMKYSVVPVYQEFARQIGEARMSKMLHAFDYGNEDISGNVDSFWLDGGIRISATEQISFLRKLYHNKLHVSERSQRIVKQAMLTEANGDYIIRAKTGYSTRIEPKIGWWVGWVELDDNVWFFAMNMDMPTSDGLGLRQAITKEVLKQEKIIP

[18] = system: K. pneumoniae 200047 (TEM-1, SHV-32, CTX-M-15, OXA-1); assay: microbe, parasite or virus in culture; assay type: cell-based; conditions: for MIC: Klebsiella pneumoniae, 18 h, read-out: MIC compounds of the invention alone

Row | Structure (SMILES) | MIC [1] [µg/mL] | pIC50 [2] | MIC [3] [µg/mL] | pIC50 [4] | pIC50 [5] | MIC [6] [µg/mL] | pIC50 [7] | pIC50 [8] | MIC [9] [µg/mL] | MIC, combination of CAZ and compounds of the invention [9] [µg/mL] | MIC [10] [µg/mL] | MIC, combination of CAZ and compounds of the invention [10] [µg/mL] | MIC [11] [µg/mL] | pIC50 [12] | pIC50 [13] | pIC50 [14] | pIC50 [17] | MIC [18] [µg/mL] | also measured
1 | NC[C@@H]1C(c2nccs2)=C[C@@H]2CN1C(=O)N2OS(=O)(=O)[O-].O=C(O)C(F)(F)F.[Na+] [Example 2, Sodium and 2,2,2-trifluoroacetate [(2S,5R)-2-(azaniumylmethyl)-7-oxo-3-thiazol-2-yl-1,6-diazabicyclo[3.2.1]oct-3-en-6-yl] sulfate] | 16 | 8.17 | 16 | 9.08 | 6.96 | 16 | 9.13 | 8.21 | ≤ 0.016 | <0.25 | ≤ 0.016 | <0.25 | 8 | 9.12 | 8.49 | 8.77 | 8.46 | 16 | MIC, combination of CAZ and compounds of the invention ([15]; MIC of ceftazidime with compound fixed at 4 μg/mL, strain UFR90 (P. aeruginosa)): <0.25 µg/mL; MIC ([15]; Pseudomonas aeruginosa, 18 h, read-out: MIC compounds of the invention alone): 1 µg/mL; MIC, combination of CAZ and compounds of the invention [16]: <0.25 µg/mL
2 | NC[C@@H]1C(c2ncco2)=C[C@@H]2CN1C(=O)N2OS(=O)(=O)[O-].O=C(O)C(F)(F)F.[Na+] [Example 5, Sodium and 2,2,2-trifluoroacetate [(2S,5R)-2-(azaniumylmethyl)-7-oxo-3-oxazol-2-yl-1,6-diazabicyclo[3.2.1]oct-3-en-6-yl] sulfate] | 8 | 6.37 | 32 | 8.10 | 4.92 | 32 | 7.19 | 6.43 | ≤ 0.016 | <0.25 | 8 | <0.25 | 32 | 6.89 | 4.96 | 6.96 | 6.74 | 16 | MIC, combination of CAZ and compounds of the invention ([1]; MIC of ceftazidime with compound fixed at 4 μg/mL, strain UFR85 (E. cloacae)): <0.25 µg/mL; MIC, combination of CAZ and compounds of the invention ([3]; MIC of ceftazidime with compound fixed at 4 μg/mL, strain UFR21 (K. oxytoca)): <0.25 µg/mL; MIC, combination of CAZ and compounds of the invention ([6]; MIC of ceftazidime with compound fixed at 4 μg/mL, strain UFR68 (K. pneumoniae)): ≤0.25 µg/mL; MIC, combination of CAZ and compounds of the invention ([11]; MIC of ceftazidime with compound fixed at 4 μg/mL, strain 160143 (K. pneumoniae)): <0.25 µg/mL; MIC, combination of CAZ and compounds of the invention ([18]; MIC of ceftazidime with compound fixed at 4 μg/mL, strain 200047 (K. pneumoniae)): <0.25 µg/mL
